# Measurements taken from patent publication US20240042019A1, “OPTIMIZED TLR7 LIGANDS AND USES THEREOF” (Genentech, Inc., priority 2021, published 2024).
# Tests used:
# TLR7 [1] = biological target: T1, TLR7 (Homo sapiens, UniProt Q9NYK1); test: PBMC stimulation with p-L-arginine-complexed RNA ligands, IFN-α ELISA; format: cell-based
# T1 construct: Peripheral blood mononuclear cells (PBMCs) were obtained from buffy coats from healthy adult donors; endogenous in cells; host or cells: primary human PBMCs from healthy donor buffy coats (TLR7 expressed by pDCs)
# T1 sequence (Q9NYK1 27-1049): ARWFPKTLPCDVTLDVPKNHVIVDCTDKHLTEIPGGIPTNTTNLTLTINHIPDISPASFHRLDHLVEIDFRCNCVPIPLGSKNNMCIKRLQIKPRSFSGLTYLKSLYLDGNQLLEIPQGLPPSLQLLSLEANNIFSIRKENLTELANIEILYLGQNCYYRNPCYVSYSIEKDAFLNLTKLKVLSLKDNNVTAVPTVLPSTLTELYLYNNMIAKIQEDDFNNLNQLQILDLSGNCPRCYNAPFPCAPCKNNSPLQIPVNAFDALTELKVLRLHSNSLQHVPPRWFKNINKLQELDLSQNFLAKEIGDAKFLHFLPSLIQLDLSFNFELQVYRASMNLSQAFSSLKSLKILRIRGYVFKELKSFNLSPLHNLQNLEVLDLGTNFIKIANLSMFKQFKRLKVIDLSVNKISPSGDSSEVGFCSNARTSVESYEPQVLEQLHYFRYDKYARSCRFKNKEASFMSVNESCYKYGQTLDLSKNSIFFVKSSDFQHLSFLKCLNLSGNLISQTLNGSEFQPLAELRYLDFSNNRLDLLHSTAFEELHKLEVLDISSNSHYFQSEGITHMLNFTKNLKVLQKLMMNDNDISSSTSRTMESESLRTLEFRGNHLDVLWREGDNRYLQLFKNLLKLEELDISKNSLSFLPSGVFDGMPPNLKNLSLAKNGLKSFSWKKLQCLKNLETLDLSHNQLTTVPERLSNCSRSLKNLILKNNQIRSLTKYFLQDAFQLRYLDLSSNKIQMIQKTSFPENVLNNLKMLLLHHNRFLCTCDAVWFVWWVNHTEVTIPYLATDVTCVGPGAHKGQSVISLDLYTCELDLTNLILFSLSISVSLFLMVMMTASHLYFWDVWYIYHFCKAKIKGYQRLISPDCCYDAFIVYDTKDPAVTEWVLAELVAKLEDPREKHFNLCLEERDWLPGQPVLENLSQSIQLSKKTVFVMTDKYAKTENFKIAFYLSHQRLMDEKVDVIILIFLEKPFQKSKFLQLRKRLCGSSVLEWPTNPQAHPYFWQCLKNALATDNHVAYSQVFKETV
# Protocol: Peripheral blood mononuclear cells (PBMCs) were obtained from buffy coats from healthy adult donors. Buffy coat samples were first diluted with an equal volume of phosphate-buffered saline (PBS). Next, PBMCs were isolated via density gradient centrifugation with Lymphoprep density gradient media ([…] Technologies) and SepMate-50 tubes ([…] Technologies). Samples were centrifuged at 1000 g for 15 minutes. After centrifugation, the upper layers were collected by pouring into a new tube, diluted with PBS, and centrifuged at 450×g for 5 minutes. To lyse red blood cells, cell pellets were resuspended with 10 mL Ammonium-Chloride-Potassium (ACK) Lysis Buffer and incubated for 8 minutes at room temperature. After lysis, cells were washed with PBS and passed through two 70 μm cell strainers. Viable cell counts were determined with a Vi-CELL cell counter (Beckman Coulter). […] Guanosine was added between about 20 and about 30 minutes before the addition of poly-[…])-complexed RNA. […] After mixing by pipetting up and down, the reaction was incubated for 10 minutes, pipetted up and down again, and then added to the cells. In some experiments, RNA ligands were used at a final concentration of 0.6 μg/ml. Where indicated as “+2'3' cGMP”, 2'3' cyclic GMP purchased from eMolecules was complexed together with the RNA ligands. The final concentration of 2'3' cyclic GMP was 5 μg/ml. p-L-arginine was adjusted accordingly to keep the mass ratio of nucleic acid:p-L-arginine constant. Cell culture supernatants were collected 15-18 hours after stimulation and stored at -80° C. Cytokines in cell culture supernatants were detected with the BD OptEIA human TNF ELISA Set (BD Biosciences), and either Invitrogen IFN alpha Human Matched Antibody Pair kit (Thermo Fisher Scientific) or Human IFN Alpha Multi-Subtype ELISA Kit (PBL Assay Science). To test the effects of the RNA ligands described in Example 1 on TLR7 and TLR8 activation, PBMCs were stimulated with the RNA ligands using p-L-arginine complex delivery, delivery with DOTAP, or delivery without a carrier. Activity of TLR7 and TLR8 was assessed based on measurements of IFN-α or TNF-α by enzyme-linked immunosorbent assays (ELISA). In this setting, as depicted in FIG. 6, IFN-α induced by small RNAs is derived from TLR7 expressed by pDCs, or from RIG-I expressed by monocytes. In contrast, TNF-α secretion is derived from monocytes and serves as an indication of TLR8 activation. As shown in this figure, the p-L-arginine delivery restricts most of the activation to TLRs. First, the effects of the RNA ligands on TLR7 and TLR8 activation using p-L-arginine complex delivery were tested.
# TLR7 [2] = biological target: T1, TLR7; test: PBMC stimulation with DOTAP-complexed RNA ligands, IFN-α ELISA; format: cell-based
# TLR8 = biological target: T2, TLR8 (Homo sapiens, UniProt Q9NR97); test: PBMC stimulation with DOTAP-complexed RNA ligands, TNF-α ELISA; format: cell-based
# T2 construct: Peripheral blood mononuclear cells (PBMCs) were obtained from buffy coats from healthy adult donors; endogenous in cells; host or cells: primary human PBMCs from healthy donor buffy coats (TLR8 in monocytes)
# T2 sequence (Q9NR97 27-1041): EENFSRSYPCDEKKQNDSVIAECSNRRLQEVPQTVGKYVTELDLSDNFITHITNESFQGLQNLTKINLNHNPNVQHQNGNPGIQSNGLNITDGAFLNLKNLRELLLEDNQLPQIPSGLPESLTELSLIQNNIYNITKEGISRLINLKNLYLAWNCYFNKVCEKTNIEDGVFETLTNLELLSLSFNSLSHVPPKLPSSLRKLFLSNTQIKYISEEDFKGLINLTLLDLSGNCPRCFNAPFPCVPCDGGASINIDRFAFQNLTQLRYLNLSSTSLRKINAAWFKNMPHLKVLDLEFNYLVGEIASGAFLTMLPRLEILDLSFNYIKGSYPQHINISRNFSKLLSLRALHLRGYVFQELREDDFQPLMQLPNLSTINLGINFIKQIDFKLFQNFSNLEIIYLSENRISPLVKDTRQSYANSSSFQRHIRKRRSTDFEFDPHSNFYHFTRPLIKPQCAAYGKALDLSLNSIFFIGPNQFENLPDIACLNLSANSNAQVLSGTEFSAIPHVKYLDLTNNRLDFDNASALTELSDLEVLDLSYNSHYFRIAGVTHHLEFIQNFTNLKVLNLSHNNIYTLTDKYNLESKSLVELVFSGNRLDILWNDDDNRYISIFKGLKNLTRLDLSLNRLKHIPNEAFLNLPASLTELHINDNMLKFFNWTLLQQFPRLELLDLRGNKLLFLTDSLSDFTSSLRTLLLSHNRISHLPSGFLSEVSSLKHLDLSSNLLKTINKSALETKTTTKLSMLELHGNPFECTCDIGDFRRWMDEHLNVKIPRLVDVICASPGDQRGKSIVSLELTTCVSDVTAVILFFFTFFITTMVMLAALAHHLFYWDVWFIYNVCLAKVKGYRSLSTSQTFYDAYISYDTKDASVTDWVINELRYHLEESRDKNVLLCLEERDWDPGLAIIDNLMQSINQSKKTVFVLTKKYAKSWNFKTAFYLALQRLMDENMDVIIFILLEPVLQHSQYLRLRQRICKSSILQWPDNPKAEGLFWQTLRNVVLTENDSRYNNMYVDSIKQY
# recombinant RNase T2 = recombinant RNase T2 (Homo sapiens, UniProt O00584)
# recombinant RNase T2, sequence (O00584 25-256, species assumed): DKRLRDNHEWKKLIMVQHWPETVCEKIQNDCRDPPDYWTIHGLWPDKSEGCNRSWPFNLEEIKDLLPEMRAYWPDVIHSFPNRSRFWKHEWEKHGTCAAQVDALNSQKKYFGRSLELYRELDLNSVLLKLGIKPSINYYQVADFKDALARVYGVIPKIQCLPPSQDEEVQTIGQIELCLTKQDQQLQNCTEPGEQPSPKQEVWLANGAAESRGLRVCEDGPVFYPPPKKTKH
substance,measurement,setting,value
"CCUUCUUCUUCUUCUUCUUC (CCUUCUUCUUCUUCUUCUUC; all phosphodiester, sugars by position not given here) [ORN7009, reference compound]",IFN-α secretion (TLR7 activity),TLR7 [1],no or only minor IFN-α secretion
same,IFN-α secretion (TLR7 activity),TLR7 [2],activated TLR8 rather than TLR7
same,TNF-α secretion (TLR8 activity),TLR8,activated TLR8
same,Degradation of full RNA ligand by RNase T2,recombinant RNase T2,degraded more quickly
